# Reference: PubChem BioAssay (NCI)
#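 Interpolation was linear, between the two tested concentrations surrounding the appropriate level; five concentrations were tested over 48 hours in 96-well plates. GI50 is the concentration that inhibits growth by half. At the TGI there is no net growth.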
# Tests used:
# Assay in all cases: growth of human tumour cells (NCI), 48 h
# MDA-MB-435 = system: MDA-MB-435
# T-47D breast = system: T-47D breast
# DU-145 prostate = system: DU-145 prostate
# SF-295 CNS = system: SF-295 CNS
# 786-0 renal = system: 786-0 renal
# NCI/ADR-RES ovarian = system: NCI/ADR-RES ovarian
# HCT-15 colon = system: HCT-15 colon
# UACC-257 melanoma = system: UACC-257 melanoma
# SK-OV-3 ovarian = system: SK-OV-3 ovarian
# MDA-MB-231 breast = system: MDA-MB-231 breast
# A498 renal = system: A498 renal
# M14 melanoma = system: M14 melanoma
# BT-549 breast = system: BT-549 breast
# OVCAR-4 ovarian = system: OVCAR-4 ovarian
# CAKI-1 renal = system: CAKI-1 renal
# UACC-62 melanoma = system: UACC-62 melanoma
# NCI-H23 lung = system: NCI-H23 lung
# SF-268 CNS = system: SF-268 CNS
# RXF 393 renal = system: RXF 393 renal
# HCC-2998 colon = system: HCC-2998 colon
# RPMI-8226 leukemia = system: RPMI-8226 leukemia
# COLO 205 colon = system: COLO 205 colon
# ACHN renal = system: ACHN renal
# MCF7 breast = system: MCF7 breast
# SNB-75 CNS = system: SNB-75 CNS
# KM12 colon = system: KM12 colon
# SW-620 colon = system: SW-620 colon
# CCRF-CEM leukemia = system: CCRF-CEM leukemia
# MALME-3M melanoma = system: MALME-3M melanoma
# HS 578T breast = system: HS 578T breast
# NCI-H226 lung = system: NCI-H226 lung
# IGROV1 ovarian = system: IGROV1 ovarian
# NCI-H460 lung = system: NCI-H460 lung
# HOP-62 NSCLC = system: HOP-62 NSCLC
# SK-MEL-28 melanoma = system: SK-MEL-28 melanoma
# HL-60(TB) leukemia = system: HL-60(TB) leukemia
# U251 CNS = system: U251 CNS
# OVCAR-5 ovarian = system: OVCAR-5 ovarian
# TK-10 renal = system: TK-10 renal
# SNB-19 CNS = system: SNB-19 CNS
# PC-3 prostate = system: PC-3 prostate
# SR leukemia = system: SR leukemia
# LOX IMVI melanoma = system: LOX IMVI melanoma
# NCI-H522 lung = system: NCI-H522 lung
# OVCAR-8 ovarian = system: OVCAR-8 ovarian
# SK-MEL-2 melanoma = system: SK-MEL-2 melanoma
# HCT-116 colon = system: HCT-116 colon
# A549 NSCLC = system: A549 NSCLC
# SF-539 CNS = system: SF-539 CNS
# HOP-92 NSCLC = system: HOP-92 NSCLC
# HT29 colon = system: HT29 colon
# UO-31 renal = system: UO-31 renal
# MOLT-4 leukemia = system: MOLT-4 leukemia
# OVCAR-3 ovarian = system: OVCAR-3 ovarian
# EKVX NSCLC = system: EKVX NSCLC
# SK-MEL-5 melanoma = system: SK-MEL-5 melanoma
# SN12C renal = system: SN12C renal
smiles,measurement,setting,value
O=C(O)c1ccc(NCc2nc3cc(Cl)c(Cl)cc3[nH]2)cc1,GI50,MDA-MB-435,> 100 µM
same,TGI,MDA-MB-435,> 100 µM
same,GI50,T-47D breast,> 100 µM
same,TGI,T-47D breast,> 100 µM
same,GI50,DU-145 prostate,> 100 µM
same,TGI,DU-145 prostate,> 100 µM
same,GI50,SF-295 CNS,> 100 µM
same,TGI,SF-295 CNS,> 100 µM
same,GI50,786-0 renal,> 100 µM
same,TGI,786-0 renal,> 100 µM
same,GI50,NCI/ADR-RES ovarian,> 100 µM
same,TGI,NCI/ADR-RES ovarian,> 100 µM
same,GI50,HCT-15 colon,96.9 µM
same,TGI,HCT-15 colon,> 100 µM
same,GI50,UACC-257 melanoma,5.28 µM
same,TGI,UACC-257 melanoma,77.6 µM
same,GI50,SK-OV-3 ovarian,> 100 µM
same,TGI,SK-OV-3 ovarian,> 100 µM
same,GI50,MDA-MB-231 breast,> 100 µM
same,TGI,MDA-MB-231 breast,> 100 µM
same,GI50,A498 renal,> 100 µM
same,TGI,A498 renal,> 100 µM
same,GI50,M14 melanoma,> 100 µM
same,TGI,M14 melanoma,> 100 µM
same,GI50,BT-549 breast,> 100 µM
same,TGI,BT-549 breast,> 100 µM
same,GI50,OVCAR-4 ovarian,40.9 µM
same,TGI,OVCAR-4 ovarian,> 100 µM
same,GI50,CAKI-1 renal,> 100 µM
same,TGI,CAKI-1 renal,> 100 µM
same,GI50,UACC-62 melanoma,> 100 µM
same,TGI,UACC-62 melanoma,> 100 µM
same,GI50,NCI-H23 lung,> 100 µM
same,TGI,NCI-H23 lung,> 100 µM
same,GI50,SF-268 CNS,> 100 µM
same,TGI,SF-268 CNS,> 100 µM
same,GI50,RXF 393 renal,> 100 µM
same,TGI,RXF 393 renal,> 100 µM
same,GI50,HCC-2998 colon,72.3 µM
same,TGI,HCC-2998 colon,> 100 µM
same,GI50,RPMI-8226 leukemia,> 100 µM
same,TGI,RPMI-8226 leukemia,> 100 µM
same,GI50,COLO 205 colon,> 100 µM
same,TGI,COLO 205 colon,> 100 µM
same,GI50,ACHN renal,> 100 µM
same,TGI,ACHN renal,> 100 µM
same,GI50,MCF7 breast,6.03 µM
same,TGI,MCF7 breast,> 100 µM
same,GI50,SNB-75 CNS,> 100 µM
same,TGI,SNB-75 CNS,> 100 µM
same,GI50,KM12 colon,> 100 µM
same,TGI,KM12 colon,> 100 µM
same,GI50,SW-620 colon,> 100 µM
same,TGI,SW-620 colon,> 100 µM
same,GI50,CCRF-CEM leukemia,> 100 µM
same,TGI,CCRF-CEM leukemia,> 100 µM
same,GI50,MALME-3M melanoma,0.424 µM
same,TGI,MALME-3M melanoma,1.69 µM
same,GI50,HS 578T breast,> 100 µM
same,TGI,HS 578T breast,> 100 µM
same,GI50,NCI-H226 lung,> 100 µM
same,TGI,NCI-H226 lung,> 100 µM
same,GI50,IGROV1 ovarian,> 100 µM
same,TGI,IGROV1 ovarian,> 100 µM
same,GI50,NCI-H460 lung,> 100 µM
same,TGI,NCI-H460 lung,> 100 µM
same,GI50,HOP-62 NSCLC,> 100 µM
same,TGI,HOP-62 NSCLC,> 100 µM
same,GI50,SK-MEL-28 melanoma,3.77 µM
same,TGI,SK-MEL-28 melanoma,> 100 µM
same,GI50,HL-60(TB) leukemia,> 100 µM
same,TGI,HL-60(TB) leukemia,> 100 µM
same,GI50,U251 CNS,> 100 µM
same,TGI,U251 CNS,> 100 µM
same,GI50,OVCAR-5 ovarian,> 100 µM
same,TGI,OVCAR-5 ovarian,> 100 µM
same,GI50,TK-10 renal,> 100 µM
same,TGI,TK-10 renal,> 100 µM
same,GI50,SNB-19 CNS,> 100 µM
same,TGI,SNB-19 CNS,> 100 µM
same,GI50,PC-3 prostate,> 100 µM
same,TGI,PC-3 prostate,> 100 µM
same,GI50,SR leukemia,69.6 µM
same,TGI,SR leukemia,> 100 µM
same,GI50,LOX IMVI melanoma,> 100 µM
same,TGI,LOX IMVI melanoma,> 100 µM
same,GI50,NCI-H522 lung,66.2 µM
same,TGI,NCI-H522 lung,> 100 µM
same,GI50,OVCAR-8 ovarian,> 100 µM
same,TGI,OVCAR-8 ovarian,> 100 µM
same,GI50,SK-MEL-2 melanoma,5.5 µM
same,TGI,SK-MEL-2 melanoma,41.6 µM
same,GI50,HCT-116 colon,> 100 µM
same,TGI,HCT-116 colon,> 100 µM
same,GI50,A549 NSCLC,> 100 µM
same,TGI,A549 NSCLC,> 100 µM
same,GI50,SF-539 CNS,> 100 µM
same,TGI,SF-539 CNS,> 100 µM
same,GI50,HOP-92 NSCLC,> 100 µM
same,TGI,HOP-92 NSCLC,> 100 µM
same,GI50,HT29 colon,> 100 µM
same,TGI,HT29 colon,> 100 µM
same,GI50,UO-31 renal,> 100 µM
same,TGI,UO-31 renal,> 100 µM
same,GI50,MOLT-4 leukemia,> 100 µM
same,TGI,MOLT-4 leukemia,> 100 µM
same,GI50,OVCAR-3 ovarian,60.7 µM
same,TGI,OVCAR-3 ovarian,> 100 µM
same,GI50,EKVX NSCLC,> 100 µM
same,TGI,EKVX NSCLC,> 100 µM
same,GI50,SK-MEL-5 melanoma,93.4 µM
same,TGI,SK-MEL-5 melanoma,> 100 µM
same,GI50,SN12C renal,> 100 µM
same,TGI,SN12C renal,> 100 µM
